Data published in patent US20210196779A1, “Compositions and Methods for Treating Steroid Hormone-Related Diseases or Disorders” (YALE UNIVERSITY, priority 2018, published 2021).

Tests used:
[1] = biological target: glucocorticoid receptor (GR) (Homo sapiens, UniProt P04150); assay: PSA-luciferase reporter assay, DEX induced, PC3 cells; format: cell-based; parameters: Western blot analysis for AR and GR protein expression in LNCaP, 22RV1 and PC3 cells; endogenous in cells; host or cells: PC3
Description: Reporter cells were treated with herbal extracts at 30, 100, 300, and 1000 μg/ml for 24 h in a 37° C.-CO2 incubator. DHT (25 nM) was used to stimulate androgen receptor activity. Dexamethasone (50 nM) was used to stimulate glucocorticoid receptor activity Cells were lysed using luciferase lysis buffer after which luciferase buffer with luciferin was added to generate luminescence. Luminescence was recorded using a luminescence microplate reader.

MDAMB-231 cells = assay: Cell growth assay, MDAMB-231 breast cancer cells; format: cell-based; details: 4 days
Description: (§1) MCF7, T47D, MDA-MB-453, MDA-MB-231 breast cancer cells were grown in corning T75 cell culture flask in RPMI1640 medium supplemented with 5% FBS, 50 μg/ml Kanamycin in a 37° C., 5% CO2 incubator.
(§2) 20,000 cells in 1 ml of medium (phenol red free RPMI1640, 5% charcoal-dialysis FBS, 50 μg/ml Kanamyacin) were seeded per well of a 24-well plate and incubated in a 37° C. incubator with 5% CO2 overnight. Different concentrations of herbal extract were added to each well in order to have final concentrations from 50 μg/ml to 500 μg/ml. For prostate cancer cells, DHT (25 nM) was used to stimulate androgen receptor activity. For glucocorticoid receptor overexpressed LNCaP cells, dexamethasone (50 nM) was used to stimulate glucocorticoid receptor activity. For all breast cancer cells, E2 (10 nM) was used to stimulate ER activity. Control medium without any steroid hormone was used as a control setting. After 4 days of incubation, cells were fixed and stained for 2 h with 0.5% methylene blue in 50% ethanol, followed by washing with tap water to remove unbound dye. Plates were air dried and then cells were dissolved in 1% sarkosyl (sodium lauroyl sarcosinate) by shaking at room temperature for 3 h. Cell growth was quantified based on the amount of methylene blue adsorbed by the cells as measured by a spectrophotometer (Molecular Devices) at 595 nm. […]

22RV1 tumor = assay: Inhibition of 22RV1 prostate cancer growth in nude mice; format: in vivo; details: equivalent dose to Y1830 (2.2 mg/kg, PO, B.I.D.), 11 days
Description: (§3) 22RV1 prostate cancer cells 5×10^6 cells in 100 μl Matrigel were injected subcutaneously into 10 week old male NCR nude mice. When 22RV1 tumor reached 5 mm×5 mm, mice were orally fed with Y1830 (water extract, 500 mg/kg, PO, B.I.D, N5) and RGA (or the fraction comprising RGA) (equivalent dose to Y1830: 2.2 mg/kg, PO, B.I.D.) for 11 days. Tumor volume was estimated by using the formula length×width^2/2.
(§4) When tumors reached 5 mm×5 mm, Y1830 water extract (500 mg/kg, BID, PO) and RGA (or the fraction comprising RGA) at equivalent dose to Y1830 were used to treat animals for 11 days. […] Therefore, it is further concluded that compounds other than molecules in RGA containing fraction of Y1830 total extract may also have anti-tumor activity or prevent tumor to develop drug resistant.

[2] = Body weight of nude mice during the treatment; format: in vivo; details: equivalent dose to Y1830 (2.2 mg/kg, PO, B.I.D.), 11 days
Description: as §3, §4

CD47 = assay: Western blot, MCF7 cells, CD47; format: cell-based; details: MCF7 cells (FIG. 10)
Description: Total cell lysis was conducted using 2×SDS sample buffer (62.5 mM Tris-HCl, 2% SDS, 10% glycerol, 50 mM DTT, and 0.05% bromophenol blue). The samples were sonicated for 10 s to shear DNA. Cell nuclei were isolated using Tris buffer saline with 0.4% NP40. Cell extracts were then electrophoresed through 10% SDS-polyacrylamide gels and transferred to 0.2 μm nitrocellulose membranes (Bio-Rad Laboratories, Hercules, Calif.) with a Miniprotein II transferring apparatus (Bio-Rad). The membranes were blocked and probed in TBS-T buffer (1×TBS buffer, 0.2% Tween 20) containing 5% non-fat milk. Monoclonal rabbit anti-AR (1:5000), was used to detect androgen receptor (Abcam #133273), Glucocorticoid Receptor (D8H2) XP® Rabbit mAb #3660, ERa Antibody (F-10): sc-8002, BRD4 (E2A7X) Rabbit mAb #13440, Brd2 (D89B4) Rabbit mAb #5848, PARP (46D11) Rabbit mAb #9532, Acetyl-Histone H3 (Lys27) (D5E4) XP® Rabbit mAb #8173 and a monoclonal actin antibody diluted 1:2500 (Sigma, St. Louis, Mo.) was used to detect β-actin as the internal control to confirm equal protein loading. […] Enhanced chemiluminescence reagents (Perkin-Elmer Life Science Products, Boston, Mass.) were used to visualize the immunoreactive bands and the densities of protein bands were scanned analyzed using ImageJ software from the NIH.

MDA-MB-453 cells = assay: Cell growth assay, MDA-MB-453 breast cancer cells; format: cell-based; details: 4 days
Description: as §1, §2

glucocorticoid receptor (GR), sequence (P04150 whole entry): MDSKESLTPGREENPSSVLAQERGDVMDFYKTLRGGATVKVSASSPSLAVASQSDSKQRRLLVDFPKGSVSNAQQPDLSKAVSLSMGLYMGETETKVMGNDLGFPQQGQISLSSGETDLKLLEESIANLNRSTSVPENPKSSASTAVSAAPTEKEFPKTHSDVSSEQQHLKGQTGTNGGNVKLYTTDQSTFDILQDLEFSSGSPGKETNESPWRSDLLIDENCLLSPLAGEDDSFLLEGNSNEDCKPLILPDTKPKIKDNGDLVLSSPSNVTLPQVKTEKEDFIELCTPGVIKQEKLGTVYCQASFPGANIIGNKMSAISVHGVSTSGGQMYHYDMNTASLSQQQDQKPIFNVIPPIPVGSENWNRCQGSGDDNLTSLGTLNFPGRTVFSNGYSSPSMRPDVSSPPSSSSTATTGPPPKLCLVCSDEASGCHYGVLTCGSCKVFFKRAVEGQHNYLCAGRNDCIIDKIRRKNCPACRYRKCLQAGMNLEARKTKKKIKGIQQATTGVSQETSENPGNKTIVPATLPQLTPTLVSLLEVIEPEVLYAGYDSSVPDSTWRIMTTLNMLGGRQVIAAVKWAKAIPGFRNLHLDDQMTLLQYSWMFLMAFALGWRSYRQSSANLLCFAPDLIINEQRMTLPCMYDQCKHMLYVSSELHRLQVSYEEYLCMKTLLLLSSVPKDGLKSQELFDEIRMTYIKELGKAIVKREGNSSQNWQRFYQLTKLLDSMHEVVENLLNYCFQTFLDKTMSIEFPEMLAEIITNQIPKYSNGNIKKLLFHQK

For `CC(=O)OCC1OC(Oc2cc3c(c(O)c2C)C(=O)c2ccc(O)cc2C3=O)C(OC2OC(C)C(O)C(O)C2O)C(O)C1O` [RGA, 1,3,6-Trihydroxy-2-methyl-9,10-anthracenedione 3-O-[α-L-Rhamnopyranosyl-(1→2)-6-O-acetyl-β-D-glucopyranoside]], the “inhibitory effect on DEX induced transcriptional response” value [1] was “inhibitory effect”, the “inhibition of growth of triple negative MDAMB-231 cells” value (MDAMB-231 cells) was “inhibited the growth” and the “inhibition on 22RV1 tumor growth” value (22RV1 tumor) was “significant inhibition on 22RV1 tumor growth from day 2 to day 6”. The “animal body weight loss” value [2] was “did not cause animal body weight loss”, the CD47 expression (CD47) was “downregulation” and the “inhibition of growth of double negative MDA-MB-453 cells” value (MDA-MB-453 cells) was “inhibited the growth”.
